Measured values from patent publication US9745322B2, “Compounds for the treatment of hepatitis C” (priority 2013, dated 2017).
Read-outs that look alike come from different tables or passages of the source.

Tested on: HCV pseudoparticles, genotype 1a (H77C) E1 and E2 envelope
Assay: HCV pseudoparticle infection assay (luciferase reporter, Huh7 cells)
Assay type: cell-based, HCV genotype 1a (H77C)
Conditions: Hepatitis C virus, Huh-7, 48 h, read-out: EC50 (nM) 1a (H77C), HCV pseudoparticles genotype 1a H77C, Huh7 cells, luciferase 2 days after infection

In the case of COC(=O)[C@H](CNC(=O)C(=O)N(C)C)NC(=O)c1ccc2cc1OCCCCCCOc1ccc(cc1)CNc1nc(nc(OCC(F)(F)F)n1)N2 [Example 1001], the EC50 (class symbol) is reported as 0.1 to 100 nM and the EC50 (numeric value) is reported as 0.624 nM.

CNC(=O)C(=O)NC[C@H](NC(=O)c1ccc2cc1OCCCCCCOc1ccc(cc1)CNc1nc(nc(OCC(F)(F)F)n1)N2)C(=O)OC [Example 1002] showed an EC50 (class symbol) of 0.1 to 100 nM.

Work on COC(=O)[C@H](CNC(=O)C(N)=O)NC(=O)c1ccc2cc1OCCCCCCOc1ccc(cc1)CNc1nc(nc(OCC(F)(F)F)n1)N2 [Example 1003] yielded an EC50 (class symbol) of 0.1 to 100 nM.

In the case of CN(C)C(=O)C(=O)NC[C@H](NC(=O)c1ccc2cc1OCCCCCCOc1ccc(cc1)CNc1nc(nc(OCC(F)(F)F)n1)N2)C(=O)O [Example 1004], the EC50 (class symbol) is reported as 0.1 to 100 nM.

CNC(=O)C(=O)NC[C@H](NC(=O)c1ccc2cc1OCCCCCCOc1ccc(cc1)CNc1nc(nc(OCC(F)(F)F)n1)N2)C(=O)O [Example 1005] showed an EC50 (class symbol) of 0.1 to 100 nM and an EC50 (numeric value) of 2.47 nM.
